Source: patent US4504580A, “Antibiotics produced by fermentation of a novel strain of Streptomyces hygroscopicus” (Bristol-Myers Company, priority 1983, dated 1985)
Values after ≈ are worked out from the molar mass of the structure shown. Like-named read-outs stand apart in the source and are kept apart here.

What was measured:
Assay type in all cases: cell-based
[1] = system: Staphylococcus aureus 209P; assay: MIC by serial two-fold agar dilution, S. aureus 209P; settings: Staphylococcus aureus, 209P
Experimental: (§1) The minimum inhibitory concentrations (MIC) of Bu-2659A, B, C, D and E were determined for a variety of gram-positive and gram-negative bacteria by the serial two-fold agar dilution method using the Steer's multi-inoculating apparatus. The inoculum was standardized as a 10^4 dilution of an overnight culture of the test organisms in Heart Infusion Broth (Difco). […] Reference antibiotics utilized in these tests included commercially available neomycin as well as its components, neomycins B and C [as used herein, the term "neomycin" means the commercial product containing neomycins B and C at an approximate ratio of 7:3], paromomycin [the commercial product containing >90% of paromomycin I and <10% of paromomycin II] and ribostamycin.

[2] = system: Staphylococcus aureus Smith; assay: MIC by serial two-fold agar dilution, S. aureus Smith; settings: Staphylococcus aureus
Experimental: as §1

[3] = system: Staphylococcus aureus D136; assay: MIC by serial two-fold agar dilution, S. aureus D136; settings: Staphylococcus aureus, D136
Experimental: as §1

[4] = system: Micrococcus luteus PCI 1001; assay: MIC by serial two-fold agar dilution, M. luteus PCI 1001; settings: Micrococcus luteus, PCI1001
Experimental: as §1

[5] = system: Micrococcus flavus D12; assay: MIC by serial two-fold agar dilution, M. flavus D12; settings: Micrococcus flavus, D12
Experimental: as §1

[6] = system: Bacillus subtilis PCI 219; assay: MIC by serial two-fold agar dilution, B. subtilis PCI 219; settings: Bacillus subtilis, PCI219
Experimental: as §1

[7] = system: Escherichia coli NIHJ; assay: MIC by serial two-fold agar dilution, E. coli NIHJ; settings: Escherichia coli
Experimental: as §1

[8] = system: Escherichia coli Juhl; assay: MIC by serial two-fold agar dilution, E. coli Juhl; settings: Escherichia coli
Experimental: as §1

[9] = system: Klebsiella pneumoniae D11; assay: MIC by serial two-fold agar dilution, K. pneumoniae D11; settings: Klebsiella pneumoniae, D11
Experimental: as §1

[10] = system: Proteus vulgaris A9436; assay: MIC by serial two-fold agar dilution, P. vulgaris A9436; settings: Proteus vulgaris, A9436
Experimental: as §1

[11] = system: Proteus mirabilis A9554; assay: MIC by serial two-fold agar dilution, P. mirabilis A9554; settings: Proteus mirabilis, A9554
Experimental: as §1

[12] = system: Proteus mirabilis A9906; assay: MIC by serial two-fold agar dilution, P. mirabilis A9906; settings: Proteus mirabilis, A9906
Experimental: as §1

[13] = system: Proteus morganii A9553; assay: MIC by serial two-fold agar dilution, P. morganii A9553; settings: Morganella morganii, A9553
Experimental: as §1

[14] = system: Proteus rettgeri A15167; assay: MIC by serial two-fold agar dilution, P. rettgeri A15167; settings: Providencia rettgeri, A15167
Experimental: as §1

[15] = system: Pseudomonas aeruginosa D15; assay: MIC by serial two-fold agar dilution, P. aeruginosa D15; settings: Pseudomonas aeruginosa, D15
Experimental: as §1

[16] = system: Pseudomonas aeruginosa A9930; assay: MIC by serial two-fold agar dilution, P. aeruginosa A9930; settings: Pseudomonas aeruginosa, A9930
Experimental: as §1

[17] = system: Serratia marcescens A20019; assay: MIC by serial two-fold agar dilution, S. marcescens A20019; settings: Serratia marcescens, A20019
Experimental: as §1

[18] = system: gram-positive and gram-negative bacteria; assay: In vitro antibacterial spectra (MIC), overall comparison, Table 7; settings: Table 7 organisms
Experimental: as §1

[19] = system: Escherichia coli JR88; assay: MIC, aminoglycoside-resistant E. coli JR88; settings: Escherichia coli, JR88
Experimental: as §1

[20] = Table 7, Mueller-Hinton agar, read-out: MIC

Structure (SMILES) | MIC [1] [µg/mL] | MIC [2] [µg/mL] | MIC [6] [µg/mL] | MIC [7] [µg/mL] | MIC [9] [µg/mL] | MIC [10] [µg/mL] | MIC [11] [µg/mL] | MIC [16] [µg/mL] | MIC [1, 20] [µg/mL] | MIC [2, 20] [µg/mL] | MIC [3, 20] [µg/mL] | MIC [4, 20] [µg/mL] | MIC [5, 20] [µg/mL] | MIC [6, 20] [µg/mL] | MIC [7, 20] [µg/mL] | MIC [8, 20] [µg/mL] | MIC [9, 20] [µg/mL] | MIC [10, 20] [µg/mL] | MIC [11, 20] [µg/mL] | MIC [12, 20] [µg/mL] | further results
NC[C@H]1O[C@H](O[C@H]2[C@H](O[C@@H]3O[C@H](CO)[C@@H](O[C@H]4O[C@H](CN)[C@@H](O)[C@H](O)[C@H]4N)[C@H]3O)[C@@H](O)[C@H](N)C[C@@H]2N)[C@H](N)[C@@H](O)[C@@H]1O [Neomycin C, neomycin C] | 0.8 (≈ 1.3 µM) | 1.6 (≈ 2.6 µM) | < 0.05 | 3.1 (≈ 5.04 µM) | 0.4 (≈ 0.651 µM) | 1.6 (≈ 2.6 µM) | 3.1 (≈ 5.04 µM) | 50 (≈ 81.3 µM) |  |  |  |  |  |  |  |  |  |  |  |  | MIC [3]: 1.6 µg/mL (≈ 2.6 µM); MIC [4]: 50 µg/mL (≈ 81.3 µM); MIC [5]: 100 µg/mL (≈ 163 µM); MIC [8]: 12.5 µg/mL (≈ 20.3 µM); MIC [12]: 1.6 µg/mL (≈ 2.6 µM); MIC [13]: 3.1 µg/mL (≈ 5.04 µM); MIC [14]: 1.6 µg/mL (≈ 2.6 µM); MIC [15]: > 100 µg/mL; MIC [17]: 6.3 µg/mL (≈ 10.2 µM)
NC[C@H]1O[C@H](O[C@H]2[C@H](O[C@@H]3O[C@H](CO)[C@@H](O[C@H]4O[C@@H](CO)[C@@H](O)[C@H](O)[C@H]4N)[C@H]3O)[C@@H](O)[C@H](O)C[C@@H]2N)[C@H](N)[C@@H](O)[C@@H]1O [Bu-2659D, 1,6'"-dideamino-1,6'"-dihydroxyneomycin B] |  |  |  |  |  |  |  |  | 6.3 (≈ 10.2 µM) | 25 (≈ 40.5 µM) | 25 (≈ 40.5 µM) | 100 (≈ 162 µM) | 100 (≈ 162 µM) | 1.6 (≈ 2.59 µM) | 12.5 (≈ 20.3 µM) | 50 (≈ 81.1 µM) | 1.6 (≈ 2.59 µM) | 3.1 (≈ 5.03 µM) | 6.3 (≈ 10.2 µM) | 6.3 (≈ 10.2 µM) | MIC [13, 20]: 12.5 µg/mL (≈ 20.3 µM); MIC [14, 20]: 3.1 µg/mL (≈ 5.03 µM); MIC [15, 20]: > 100 µg/mL; MIC [16, 20]: 50 µg/mL (≈ 81.1 µM); MIC [17, 20]: 100 µg/mL (≈ 162 µM); in vitro antibacterial activity, in words [18]: less active than components B and C
NC[C@H]1O[C@H](O[C@H]2[C@H](O[C@@H]3O[C@H](CO)[C@@H](O[C@H]4O[C@H](CN)[C@@H](O)[C@H](O)[C@H]4N)[C@H]3O)[C@@H](O)[C@H](O)C[C@@H]2N)[C@H](N)[C@@H](O)[C@@H]1O [Bu-2659B, 1-deamino-1-hydroxyneomycin C] |  |  |  |  |  |  |  |  | 3.1 (≈ 5.04 µM) | 3.1 (≈ 5.04 µM) | 6.3 (≈ 10.2 µM) | > 100 | > 100 | 0.4 (≈ 0.65 µM) | 12.5 (≈ 20.3 µM) | 50 (≈ 81.2 µM) | 1.6 (≈ 2.6 µM) | 3.1 (≈ 5.04 µM) | 6.3 (≈ 10.2 µM) | 6.3 (≈ 10.2 µM) | MIC [13, 20]: 12.5 µg/mL (≈ 20.3 µM); MIC [14, 20]: 3.1 µg/mL (≈ 5.04 µM); MIC [15, 20]: > 100 µg/mL; MIC [16, 20]: > 100 µg/mL; MIC [17, 20]: 100 µg/mL (≈ 162 µM); activity relative to Bu-2659A ([18]; as active as Bu-2659A): approximately 1/4
NC[C@H]1O[C@H](O[C@H]2[C@H](O)[C@@H](O)[C@H](N)C[C@@H]2N)[C@H](N)[C@@H](O)[C@@H]1O [Neamine, neamine] | 6.3 (≈ 19.5 µM) | 3.1 (≈ 9.62 µM) | 3.1 (≈ 9.62 µM) | 12.5 (≈ 38.8 µM) | 12.5 (≈ 38.8 µM) | 6.3 (≈ 19.5 µM) | 25 (≈ 77.6 µM) | 400 (≈ 1240 µM) |  |  |  |  |  |  |  |  |  |  |  |  | MIC [19]: 12.5 µg/mL (≈ 38.8 µM)
NC[C@H]1O[C@H](O[C@H]2[C@H](O[C@@H]3O[C@H](CO)[C@@H](O)[C@H]3O)[C@@H](O)[C@H](O)C[C@@H]2N)[C@H](N)[C@@H](O)[C@@H]1O [Bu-2659E, 1-deamino-1-hydroxyribostamycin] |  |  |  |  |  |  |  |  | 25 (≈ 54.9 µM) | 50 (≈ 110 µM) | 50 (≈ 110 µM) | > 100 | > 100 | 3.1 (≈ 6.81 µM) | 50 (≈ 110 µM) | > 100 | 12.5 (≈ 27.4 µM) | 12.5 (≈ 27.4 µM) | 12.5 (≈ 27.4 µM) | 25 (≈ 54.9 µM) | MIC [13, 20]: 25 µg/mL (≈ 54.9 µM); MIC [14, 20]: 12.5 µg/mL (≈ 27.4 µM); MIC [15, 20]: > 100 µg/mL; MIC [16, 20]: > 100 µg/mL; MIC [17, 20]: > 100 µg/mL; in vitro antibacterial activity, in words [18]: less active than components B and C
NC[C@@H]1O[C@H](O[C@H]2[C@@H](O)[C@H](O[C@@H]3[C@@H](O)[C@H](N)C[C@H](N)[C@H]3O[C@H]3O[C@H](CN)[C@@H](O)[C@H](O)[C@H]3N)O[C@@H]2CO)[C@H](N)[C@@H](O)[C@@H]1O [Neomycin B, neomycin B] | 0.4 (≈ 0.651 µM) | 0.4 (≈ 0.651 µM) | < 0.05 | 1.6 (≈ 2.6 µM) | 0.2 (≈ 0.325 µM) | 0.8 (≈ 1.3 µM) | 0.8 (≈ 1.3 µM) | 3.1 (≈ 5.04 µM) |  |  |  |  |  |  |  |  |  |  |  |  | MIC [3]: 0.4 µg/mL (≈ 0.651 µM); MIC [4]: 0.8 µg/mL (≈ 1.3 µM); MIC [5]: 1.6 µg/mL (≈ 2.6 µM); MIC [8]: 3.1 µg/mL (≈ 5.04 µM); MIC [12]: 0.8 µg/mL (≈ 1.3 µM); MIC [13]: 3.1 µg/mL (≈ 5.04 µM); MIC [14]: 1.6 µg/mL (≈ 2.6 µM); MIC [15]: 3.1 µg/mL (≈ 5.04 µM); MIC [17]: 1.6 µg/mL (≈ 2.6 µM)
